Measured values published in patent US8691761B2, “Somatostatin receptor 2 antagonists” (priority 2006, dated 2014).
Bridge positions count the residues as written; N and C are the ends. Square brackets hold non-standard residues; d marks the D form. Peptide text beside a SMILES is read from it. Phe(4-NHCONH2) = NC(=O)Nc1ccc(C[C@H](N)C(=O)O)cc1; dTrp(5-F) = N[C@H](Cc1c[nH]c2ccc(F)cc12)C(=O)O; Phe(4-Cl) = N[C@@H](Cc1ccc(Cl)cc1)C(=O)O; 2Nal = N[C@@H](Cc1ccc2ccccc2c1)C(=O)O

Experiments:
hSSTR5 = target: T1, hSSTR5 (Homo sapiens, UniProt P35346); assay: Receptor autoradiography, displacement of 125I-[Leu8,D-Trp22,Tyr25]-SRIF-28 from membrane pellet sections; type: binding; conditions: Table 3; mean ± SEM when N ≧ 3; read-out: sst5 binding affinity (IC50)
T1 construct: expressed in transfected cells; host or cells: CHO-K1 or CCL39 cells
T1 sequence (P35346 whole entry): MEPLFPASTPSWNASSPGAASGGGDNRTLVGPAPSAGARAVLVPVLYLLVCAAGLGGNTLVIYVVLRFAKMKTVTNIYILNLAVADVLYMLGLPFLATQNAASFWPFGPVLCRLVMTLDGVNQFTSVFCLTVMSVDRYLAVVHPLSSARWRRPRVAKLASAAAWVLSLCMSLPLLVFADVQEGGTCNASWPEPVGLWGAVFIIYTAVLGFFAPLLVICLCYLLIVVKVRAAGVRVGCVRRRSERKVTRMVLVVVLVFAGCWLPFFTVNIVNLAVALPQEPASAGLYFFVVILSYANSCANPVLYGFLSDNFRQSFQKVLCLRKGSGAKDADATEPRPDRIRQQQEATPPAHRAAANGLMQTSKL
Protocol: (§1) Generally, recombinant cells expressing the receptor are washed and homogenized to prepare a crude protein homogenate in a suitable buffer. In a typical assay, an amount of protein from the cell homogenate is placed into a small volume of an appropriate assay buffer at an appropriate pH. Candidate substances, such as potential SRIF agonists and antagonists, are added to the admixture in convenient concentrations, and the interaction between the candidate substance and the receptor polypeptide is monitored.
(§2) In vitro Bioassay: The effects of the various somatostatin analogs were tested in vitro for their ability to bind to isolated cloned receptors expressed on CHO-K1 cells and CCL39 cells. The molecular cloning of the genes encoding multiple somatostatin receptor subtypes permitted the individual expression of these receptors in mammalian cells and the characterization of their respective pharmacological profiles.
(§3) CHO-K1 cells were grown in Ham's F-12 medium, and CCL39 cells were grown in Dulbecco's modified Eagle's medium/Ham's F-12(1:1) mix, supplemented with 10% fetal bovine serum, 100 U/ml penicillin and 100 μg/ml streptomycin, in humidified air containing 5% CO2 at 37° C. Cells were washed twice with and scraped into ice-cold 0.05 M Tris-HCl (pH 7.4), collected by centrifugation, and homogenized using a rotor/stator/system in the same buffer. After centrifugation at 120 g for 5 min at 4° C., the supernatant was collected and centrifuged again at 48,000 g for 30 min at 4° C. The resulting pellet was resuspended in ice-cold Tris buffer, transferred into a microfuge tube, and centrifuged at 20,000 g for 15 min at 4° C. After withdrawal of the supernatant, the membrane pellet was stored at −80° C.
(§4) Receptor autoradiography was performed on 20 μm thick cryostat sections of the membrane pellets, mounted on microscope slides, and then stored at −20° C. […] Increasing concentrations of the unlabeled peptide were used ranging from 0.1-1000 nM. […] IC50 values were calculated after quantification of the data using a computer-assisted image processing system as known in this art.
(§5) The numbers in parentheses indicate the number of times the particular binding test was carried out.
(§6) Receptor autoradiography. Cell membrane pellets were prepared as previously described, and stored at −80° C. Receptor autoradiography was performed on 20-μm thick cryostat (Microm HM 500, Walldorf, Germany) sections of the membrane pellets, mounted on microscope slides, and then stored at −20° C. […] After a brief dip in distilled water to remove excess salts, the sections were dried quickly and exposed for 1 week to Kodak BioMax MR film. IC50 values were calculated after quantification of the data using a computer-assisted image processing system as described previously. […] (Reubi, J. C. “In vitro identification of vasoactive intestinal peptide receptors in human tumors: Implications for tumor imaging.” J. Nucl. Med. 1995, 36, 1846-1853).
(§7) To investigate their ssts binding properties, the peptides were tested for their ability to bind to cryostat sections from membrane pellets of cells expressing the five human ssts (Table 3).

hSSTR3 = target: T2, hSSTR3 (Homo sapiens, UniProt P32745); assay: as above; type: binding; conditions: Table 3; mean ± SEM when N ≧ 3; read-out: sst3 binding affinity (IC50)
T2 construct: expressed in transfected cells; host or cells: CHO-K1 or CCL39 cells
T2 sequence (P32745 whole entry): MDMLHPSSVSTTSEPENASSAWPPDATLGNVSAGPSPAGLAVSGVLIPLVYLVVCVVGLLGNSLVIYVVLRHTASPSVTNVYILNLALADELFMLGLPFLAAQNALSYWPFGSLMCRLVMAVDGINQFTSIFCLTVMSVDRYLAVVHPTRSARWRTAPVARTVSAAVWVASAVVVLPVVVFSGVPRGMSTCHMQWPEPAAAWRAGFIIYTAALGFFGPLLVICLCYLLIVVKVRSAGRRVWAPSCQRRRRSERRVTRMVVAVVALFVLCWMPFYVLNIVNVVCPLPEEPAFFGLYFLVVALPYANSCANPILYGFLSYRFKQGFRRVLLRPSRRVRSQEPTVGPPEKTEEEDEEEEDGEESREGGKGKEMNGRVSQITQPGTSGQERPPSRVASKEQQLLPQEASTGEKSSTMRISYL
Protocol: as §1, §2, §3, §4, §5, §6, §7

hSSTR4 = target: T3, hSSTR4 (Homo sapiens, UniProt P31391); assay: as above; type: binding; conditions: Table 3; mean ± SEM when N ≧ 3; read-out: sst4 binding affinity (IC50)
T3 construct: expressed in transfected cells; host or cells: CHO-K1 or CCL39 cells
T3 sequence (P31391 whole entry): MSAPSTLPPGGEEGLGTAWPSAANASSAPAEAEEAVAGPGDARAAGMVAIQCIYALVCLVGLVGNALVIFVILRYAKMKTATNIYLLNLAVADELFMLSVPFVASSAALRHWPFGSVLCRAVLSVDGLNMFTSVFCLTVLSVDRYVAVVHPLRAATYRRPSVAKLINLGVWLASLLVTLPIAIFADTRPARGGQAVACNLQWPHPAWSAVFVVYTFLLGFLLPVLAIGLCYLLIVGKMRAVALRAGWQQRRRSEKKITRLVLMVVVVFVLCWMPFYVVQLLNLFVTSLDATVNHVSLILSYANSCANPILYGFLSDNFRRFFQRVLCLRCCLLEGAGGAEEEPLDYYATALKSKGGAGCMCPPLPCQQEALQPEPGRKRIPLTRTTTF
Protocol: as §1, §2, §3, §4, §5, §6, §7

hSSTR2 = target: T4, hSSTR2 (Homo sapiens, UniProt P30874); assay: as above; type: binding; conditions: Table 3; mean ± SEM when N ≧ 3; read-out: sst2 binding affinity (IC50)
T4 construct: expressed in transfected cells; host or cells: CHO-K1 or CCL39 cells
T4 sequence (P30874 whole entry): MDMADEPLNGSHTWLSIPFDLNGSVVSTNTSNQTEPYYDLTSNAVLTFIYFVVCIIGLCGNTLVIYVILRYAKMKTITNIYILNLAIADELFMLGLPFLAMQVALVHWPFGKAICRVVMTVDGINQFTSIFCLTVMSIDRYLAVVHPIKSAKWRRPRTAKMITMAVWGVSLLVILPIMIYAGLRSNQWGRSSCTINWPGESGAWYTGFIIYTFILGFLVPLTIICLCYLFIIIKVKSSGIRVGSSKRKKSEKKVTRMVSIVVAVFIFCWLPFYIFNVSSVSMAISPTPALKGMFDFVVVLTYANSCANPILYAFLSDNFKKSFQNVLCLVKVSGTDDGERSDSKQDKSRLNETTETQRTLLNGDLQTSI
Protocol: as §1, §2, §3, §4, §5, §6, §7

hSSTR1 = target: T5, hSSTR1 (Homo sapiens, UniProt P30872); assay: as above; type: binding; conditions: Table 3; mean ± SEM when N ≧ 3; read-out: sst1 binding affinity (IC50)
T5 construct: expressed in transfected cells; host or cells: CHO-K1 or CCL39 cells
T5 sequence (P30872 whole entry): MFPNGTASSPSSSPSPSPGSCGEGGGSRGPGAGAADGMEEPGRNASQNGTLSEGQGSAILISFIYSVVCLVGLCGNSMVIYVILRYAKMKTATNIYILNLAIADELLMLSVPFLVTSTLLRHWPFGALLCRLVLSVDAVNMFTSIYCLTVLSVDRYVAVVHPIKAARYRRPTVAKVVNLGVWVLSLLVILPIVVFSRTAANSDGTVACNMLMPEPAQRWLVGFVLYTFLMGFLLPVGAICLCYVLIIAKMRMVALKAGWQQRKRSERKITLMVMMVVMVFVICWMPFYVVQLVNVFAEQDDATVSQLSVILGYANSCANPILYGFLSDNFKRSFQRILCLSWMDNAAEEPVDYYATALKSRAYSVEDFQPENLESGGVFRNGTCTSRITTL
Protocol: as §1, §2, §3, §4, §5, §6, §7

human sst2A receptor = target: T6, human sst2A receptor (Homo sapiens, UniProt P30874); assay: Immunofluorescence-based sst2 internalization assay in HEK-sst2 cells; type: cell-based; conditions: n ≧ 2
T6 construct: expressed in transfected cells; host or cells: HEK293 (HEK-sst2)
T6 sequence (P30874 whole entry): as the sequence (P30874 whole entry) above
Protocol: Immunofluorescence-based sst2 Internalization Assay. Immunofluorescence microscopy-based internalization assay for sst2 was performed with HEK-sst2 using the sst2-specific antibody R2-88 as described elsewhere herein. HEK-sst2 cells were treated either with vehicle alone, the sst2 agonist [Tyr^3]-octreotide at a concentration of 100 nM, [Tyr^3]-octreotide at a concentration of 100 nM in the presence of an excess of the SRIF analogues to be tested (100 times the concentration of [Tyr^3]-octreotide), or with the SRIF analogues to be tested alone at a concentration of 10 μM, and then processed for immunofluorescence microscopy as described previously.

sst2 = sst2 (Homo sapiens, UniProt P30874); assay: Calcium release assay in HEK-sst2 cells (Fluo-4NW); type: cell-based; parameters: expressed in transfected cells; host or cells: HEK293 (HEK-sst2); conditions: n ≧ 2
Sequence of sst2 (P30874 whole entry): as above
Protocol: Calcium release assay. Intracellular calcium release was measured in HEK-sst2 using the Fluo-4NW Calcium Assay kit as described previously (Magrys, et al. “The role of anti-alpha-enolase autoantibodies in pathogenicity of autoimmune-mediated retinopathy.” J. Clin. Immunol. 2007, 27, 181-192; Michel et al. “The Nef protein of human immunodeficiency virus is a broad-spectrum modulator of chemokine receptor cell surface levels that acts independently of classical motifs for receptor endocytosis and Galphai signaling.” Mol. Biol. Cell. 2006, 17, 3578-3590). In brief, HEK-sst2 cells were seeded (25,000 cells per well) in poly-D-lysine (20 μg/mL) coated 96 well plates and cultured for 1 day at 37° C. and 5% CO2 in culture medium. At the day of the experiment, the cells were washed with assay buffer (1×HBSS, 20 mM HEPES) containing 2.5 mM probenecid, and then loaded with 100 μL/well Fluo-4NW dye in assay buffer containing 2.5 mM probenecid for 30 min at 37° C. and 5% CO2 and then for further 30 min at room temperature. To measure the intracellular calcium mobilization after stimulation with the SRIF analogues to be tested, the dye-loaded cells were transferred to a SpectraMax M2^e (Molecular Devices, Sunnyvale, Calif.). Intracellular calcium mobilization was recorded in a kinetic for 60 sec at room temperature monitoring fluorescence emission at 520 nm (with λex=485 nm) in the presence of the analogues at the concentrations indicated. Maximum fluorescence (Fmax) was measured after the addition of 25 μM ionomycin. Baseline (control) measurements were taken for dye-loaded, untreated cells. Data are shown as percentage of Fmax (% Fmax) as reported previously. (Magrys, et al. J. Clin. Immunol. 2007, 27, 181-192; Michel et al. Mol. Biol. Cell. 2006, 17, 3578-3590). All experiments were repeated at least three times in triplicate.

IC50 (hSSTR5) [nM] | IC50 (hSSTR3) [nM] | IC50 (hSSTR4) [nM] | IC50 (hSSTR2) [nM] | IC50 (hSSTR1) [nM] | sst2-internalization tested in vitro in HEK-sst2 cells (function) (human sst2A receptor) | Calcium release tested in vitro in HEK-sst2 cells (function) (sst2) | SMILES
94 ± 34 | 50 ± 5.8 | 287 ± 64 | 4.9 ± 1.5 | > 1000 | Antagonist | Antagonist | C[C@@H](O)[C@@H]1NC(=O)[C@H](CCCCN)NC(=O)[C@@H](Cc2c[nH]c3ccc(F)cc23)NC(=O)[C@H](Cc2ccc(NC(N)=O)cc2)NC(=O)[C@H](NC(=O)[C@@H](N)Cc2ccc(Cl)cc2)CSSC[C@@H](C(=O)N[C@@H](Cc2ccc3ccccc3c2)C(N)=O)NC1=O [compound 25, H2N-Cpa-c[DCys-Aph(Cbm)-5F-DTrp-Lys-Thr-Cys]-2Nal-NH2] (H-[Phe(4-Cl)][dC][Phe(4-NHCONH2)][dTrp(5-F)]KTC[2Nal]-NH2; disulfide 2-7)
> 1000 | > 1000 | 287 ± 27 | 1.5 | > 1000 | Antagonist | Antagonist | C[C@@H](O)[C@@H]1NC(=O)[C@H](CCCCN)NC(=O)[C@@H](Cc2c[nH]c3ccccc23)NC(=O)[C@H](Cc2ccc(O)cc2)NC(=O)[C@H](NC(=O)[C@H](Cc2ccc([N+](=O)[O-])cc2)NC(=O)CN2CCN(CC(=O)O)CCN(CC(=O)O)CCN(CC(=O)O)CC2)CSSC[C@@H](C(=O)N[C@H](Cc2ccc(O)cc2)C(N)=O)NC1=O [compound 2, DOTA-pNO2Phe-c[DCys-Tyr-DTrp-Lys-Thr-Cys]-DTyr-NH2]
461 ± 106 | 138 ± 52 | > 1000 | 5.9 ± 1.8 | > 1000 | Antagonist | Antagonist | C[C@@H](O)[C@@H]1NC(=O)[C@H](CCCCN)NC(=O)[C@@H](Cc2c[nH]c3ccccc23)NC(=O)[C@H](Cc2ccc(NC(N)=O)cc2)NC(=O)[C@H](NC(=O)[C@@H](N)Cc2ccc(Cl)cc2)CSSC[C@@H](C(N)=O)NC1=O [compound 17, H2N-Cpa-c[DCys-Aph(Cbm)-DTrp-Lys-Thr-Cys]-NH2] (H-[Phe(4-Cl)][dC][Phe(4-NHCONH2)][dW]KTC-NH2; disulfide 2-7)
